Columns and labels:
human m1 receptor = molecular target: T1, human m1 receptor (Homo sapiens, UniProt P11229); test: m1 primary assay: arachidonic acid release in CHO-m1 cells; type: cell-based
T1 construct: expressed in transfected cells; host or cells: CHO (Chinese hamster) cells
T1 sequence (P11229 1-460): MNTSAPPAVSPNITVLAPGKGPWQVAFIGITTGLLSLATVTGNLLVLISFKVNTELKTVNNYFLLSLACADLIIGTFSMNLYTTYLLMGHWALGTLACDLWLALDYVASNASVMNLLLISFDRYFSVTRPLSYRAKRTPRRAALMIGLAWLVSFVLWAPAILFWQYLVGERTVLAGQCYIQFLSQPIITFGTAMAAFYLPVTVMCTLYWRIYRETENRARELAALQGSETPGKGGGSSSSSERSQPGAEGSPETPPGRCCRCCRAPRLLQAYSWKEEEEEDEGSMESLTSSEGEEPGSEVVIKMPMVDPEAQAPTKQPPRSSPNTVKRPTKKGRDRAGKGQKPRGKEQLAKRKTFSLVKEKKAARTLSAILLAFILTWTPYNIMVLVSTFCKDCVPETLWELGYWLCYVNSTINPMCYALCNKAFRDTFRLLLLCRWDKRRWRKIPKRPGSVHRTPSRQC
Experimental: CHO (Chinese hamster transfected with the human m1 receptor (CHO-m1) were grown to confluency in flasks using Dulbecco's Modified Eagle Medium (DMEM) containing 10% fetal bovine serum. Cells were detached with 0.05% trypsin, 0.53 mM EDTA. Cells were collected after centrifugation in a Beckman centrifuge at 1000 rpm for 10 minutes, diluted with culture medium (400,000 cells/ml) Aarachidonic acid was added to the cell solution at a 1:2000 ratio of a 1 mCi/ml stock and cells were plated at 40,000 cells per well into 96 well plates and incubated for 18 to 24 hours at 37 C and 5% CO2. Following the incubation, the medium was removed and the cells were washed with D-ME medium containing 2 mg/mL of fatty acid free BSA (250 L/well). The test compound of interest was diluted in D-ME-BSA and added to each well (150 L/well), incubated for 120 minutes at 37 C in 5% CO2. 80 µL of supernatant was transferred to Wallac 96 well plates containing 110 µL/well of Supermax scintillation cocktail at pH 9.0. Plates were counted in a Wallae microbeta counter.
Representative results from the m1 primary assay are as follows: […]

A9L-m1 = molecular target: T2, A9L-m1 (Homo sapiens, UniProt P11229); test: m1 secondary assay: PI stimulation in A9L-m1; type: cell-based; details: for Emax: A9L-m1, relative to carbachol, read-out: Pl stim. A9L-m1 % Max of carbachol; for EC50: A9L-m1, read-out: ED-50 Pl stim A9L-m1, nm
T2 sequence (P11229 1-460): T1 sequence (P11229 1-460)

Max. % activity @ 5 μM (human m1 receptor) [%]	Structure (SMILES)	Emax (A9L-m1) [%]	EC50 (A9L-m1) [nM]
45.4	O=C(N[C@@H]1c2cc(/N=C/N3CCCC3)ccc2C[C@H]1O)c1ccc(Cl)c(Cl)c1 [Compound 121]		
66.4	O=C(N[C@@H]1c2cc(/N=C/N3CCOCC3)ccc2C[C@H]1O)c1ccc(-c2ccccc2)cc1 [Compound 119]		
114.0	CN1CCC/C1=N\c1ccc2c(c1)C(NC(=O)c1ccc(-c3ccccc3)cc1)[C@H](O)C2 (some centres unmarked) [Compound 125]		
82.2	C/C(=N\c1ccc2c(c1)C(NC(=O)c1cccc(C(F)(F)F)c1)C(O)C2)N(C)C (centres unmarked) [Compound 124]		
69.8	CN(C)/C=N/c1ccc2c(c1)C(NC(=O)c1ccc(Cl)c(Cl)c1)C(O)C2.Cl (centres unmarked) [Compound 127]		
102.2	CN(C)/C=N/c1ccc2c(c1)C(NC(=O)c1cccc(C(F)(F)F)c1)C(O)C2.Cl (centres unmarked) [Compound 126]		
92.5	O=C(N[C@@H]1c2cc(/N=C/N3CCCC3)ccc2C[C@H]1O)c1ccc(-c2ccccc2)cc1 [Compound 120]		
	Cc1ccc(C(=O)NC2c3cc(/N=C/N4CCCC4)ccc3C[C@@H]2O)cc1I (some centres unmarked) [Compound 130]	64	9.2
57.4	CN(C)/C=N/c1ccc2c(c1)[C@@H](NC(=O)c1ccc(Cl)cc1)[C@H](O)C2 [Compound 118]		
80.9	O=C(NC1c2cc(/N=C/N3CCCC3)ccc2C[C@H]1O)c1ccc(Cl)cc1 (some centres unmarked) [Compound 122]		
	O=C(NC1c2cc(/N=C/N3CCCC3)ccc2C[C@@H]1O)c1ccc(F)c(Cl)c1 (some centres unmarked) [Compound 133]	40	190
75.9	O=C(NC1c2cc(/N=C/N3CCCC3)ccc2C[C@H]1O)c1ccc(-c2ccccc2)cc1 (some centres unmarked) [Compound 134]		
	C/C(=N\c1ccc2c(c1)C(NC(=O)c1ccc(Cl)c(Cl)c1)C(O)C2)N(C)C (centres unmarked) [Compound 128]	59.2	95.3
76.7	O=C(NC1c2cc(/N=C/N3CCCC3)ccc2CC1O)c1cccc(C(F)(F)F)c1 (centres unmarked) [Compound 123]		
